The NIST ThermoML archive (doi:10.1016/j.fluid.2015.03.025)

Assay: xn = mol fraction of the nth substance listed
Conditions: 101 kPa, Liquid; for electrical conductivity: Alternating current cell with electrodes; for mass density: Buoyancy - hydrostatic balance; for viscosity: Capillary tube (Ostwald / Ubbelohde) method

OCCN(CCO)CCO [triethanolamine] + C[N+](C)(C)CCO.[Cl-]
x2 = 0.5
Conditions	electrical conductivity [S/m]	mass density [kg/m3]	viscosity [mPa·s]
312.75 K	0.013	–	–
313.15 K	–	1044.2	83
317.55 K	0.008	–	–
318.15 K	–	–	64.8
318.25 K	–	1042.56	–
323.15 K	0.008	–	44.9
323.25 K	–	1040.96	–
328.15 K	0.013	–	39.9
328.35 K	–	1039.12	–
333.15 K	0.007	–	33
333.25 K	–	1037.41	–
338.15 K	0.017	–	27.2
338.45 K	–	1035.68	–
343.15 K	0.018	–	21.3
343.25 K	–	1034.09	–
348.15 K	0.006	–	18.8
348.55 K	–	1032.59	–
350.45 K	–	1032.09	–
353.15 K	0.008	1031.28	–

O=C(O)C(=O)O [ethanedioic acid] + C[N+](C)(C)CCO.[Cl-]
x2 = 0.5
Conditions	electrical conductivity [S/m]	mass density [kg/m3]	viscosity [mPa·s]
300.15 K	–	1160.6	–
303.05 K	0.483	–	–
303.15 K	–	–	119.4
304.15 K	–	1158.66	–
308.15 K	0.56	–	101.1
312.75 K	0.638	1153.06	–
313.15 K	–	–	82.7
317.55 K	0.727	–	–
318.15 K	–	1150.57	60.2
323.15 K	0.808	1148.23	43.7
328.15 K	0.886	–	37
328.65 K	–	1146.23	–
333.15 K	0.981	–	31.9
334.15 K	–	1142.66	–
343.15 K	1.144	1137.16	20.1
348.15 K	–	–	16.8
348.65 K	–	1135.11	–
353.15 K	1.288	1133.19	14.3

C[N+](C)(C)CCO.[Cl-] [choline chloride] + OCCO
x1 = 0.5
Conditions	electrical conductivity [S/m]	mass density [kg/m3]	viscosity [mPa·s]
301.55 K	–	1048.21	–
303.04 K	0.838	–	–
307.95 K	–	1046.1	–
308.15 K	0.917	–	–
312.74 K	0.986	–	–
313.15 K	–	1044.28	25.3
317.51 K	1.054	–	–
317.55 K	–	1042.81	–
318.15 K	–	–	21.7
322.85 K	–	1041.05	–
323.15 K	1.123	–	18.3
327.35 K	–	1039.36	–
328.15 K	1.186	–	16.3
333.15 K	1.264	–	14.4
333.25 K	–	1036.72	–
338.15 K	–	1034.68	12.4
343.15 K	1.414	–	10.5
347.85 K	–	1030.78	–
348.15 K	–	–	9.6
353.15 K	1.519	1028.98	8.7
